The text below walks through data of patent publication US9452986B2, “6-heteroaryloxy- or 6-aryloxy-quinoline-2-carboxamides and method of use” (AbbVie Inc., priority 2014, dated 2016).

Sequence of recombinant human Nav1.7 (Q15858 whole entry): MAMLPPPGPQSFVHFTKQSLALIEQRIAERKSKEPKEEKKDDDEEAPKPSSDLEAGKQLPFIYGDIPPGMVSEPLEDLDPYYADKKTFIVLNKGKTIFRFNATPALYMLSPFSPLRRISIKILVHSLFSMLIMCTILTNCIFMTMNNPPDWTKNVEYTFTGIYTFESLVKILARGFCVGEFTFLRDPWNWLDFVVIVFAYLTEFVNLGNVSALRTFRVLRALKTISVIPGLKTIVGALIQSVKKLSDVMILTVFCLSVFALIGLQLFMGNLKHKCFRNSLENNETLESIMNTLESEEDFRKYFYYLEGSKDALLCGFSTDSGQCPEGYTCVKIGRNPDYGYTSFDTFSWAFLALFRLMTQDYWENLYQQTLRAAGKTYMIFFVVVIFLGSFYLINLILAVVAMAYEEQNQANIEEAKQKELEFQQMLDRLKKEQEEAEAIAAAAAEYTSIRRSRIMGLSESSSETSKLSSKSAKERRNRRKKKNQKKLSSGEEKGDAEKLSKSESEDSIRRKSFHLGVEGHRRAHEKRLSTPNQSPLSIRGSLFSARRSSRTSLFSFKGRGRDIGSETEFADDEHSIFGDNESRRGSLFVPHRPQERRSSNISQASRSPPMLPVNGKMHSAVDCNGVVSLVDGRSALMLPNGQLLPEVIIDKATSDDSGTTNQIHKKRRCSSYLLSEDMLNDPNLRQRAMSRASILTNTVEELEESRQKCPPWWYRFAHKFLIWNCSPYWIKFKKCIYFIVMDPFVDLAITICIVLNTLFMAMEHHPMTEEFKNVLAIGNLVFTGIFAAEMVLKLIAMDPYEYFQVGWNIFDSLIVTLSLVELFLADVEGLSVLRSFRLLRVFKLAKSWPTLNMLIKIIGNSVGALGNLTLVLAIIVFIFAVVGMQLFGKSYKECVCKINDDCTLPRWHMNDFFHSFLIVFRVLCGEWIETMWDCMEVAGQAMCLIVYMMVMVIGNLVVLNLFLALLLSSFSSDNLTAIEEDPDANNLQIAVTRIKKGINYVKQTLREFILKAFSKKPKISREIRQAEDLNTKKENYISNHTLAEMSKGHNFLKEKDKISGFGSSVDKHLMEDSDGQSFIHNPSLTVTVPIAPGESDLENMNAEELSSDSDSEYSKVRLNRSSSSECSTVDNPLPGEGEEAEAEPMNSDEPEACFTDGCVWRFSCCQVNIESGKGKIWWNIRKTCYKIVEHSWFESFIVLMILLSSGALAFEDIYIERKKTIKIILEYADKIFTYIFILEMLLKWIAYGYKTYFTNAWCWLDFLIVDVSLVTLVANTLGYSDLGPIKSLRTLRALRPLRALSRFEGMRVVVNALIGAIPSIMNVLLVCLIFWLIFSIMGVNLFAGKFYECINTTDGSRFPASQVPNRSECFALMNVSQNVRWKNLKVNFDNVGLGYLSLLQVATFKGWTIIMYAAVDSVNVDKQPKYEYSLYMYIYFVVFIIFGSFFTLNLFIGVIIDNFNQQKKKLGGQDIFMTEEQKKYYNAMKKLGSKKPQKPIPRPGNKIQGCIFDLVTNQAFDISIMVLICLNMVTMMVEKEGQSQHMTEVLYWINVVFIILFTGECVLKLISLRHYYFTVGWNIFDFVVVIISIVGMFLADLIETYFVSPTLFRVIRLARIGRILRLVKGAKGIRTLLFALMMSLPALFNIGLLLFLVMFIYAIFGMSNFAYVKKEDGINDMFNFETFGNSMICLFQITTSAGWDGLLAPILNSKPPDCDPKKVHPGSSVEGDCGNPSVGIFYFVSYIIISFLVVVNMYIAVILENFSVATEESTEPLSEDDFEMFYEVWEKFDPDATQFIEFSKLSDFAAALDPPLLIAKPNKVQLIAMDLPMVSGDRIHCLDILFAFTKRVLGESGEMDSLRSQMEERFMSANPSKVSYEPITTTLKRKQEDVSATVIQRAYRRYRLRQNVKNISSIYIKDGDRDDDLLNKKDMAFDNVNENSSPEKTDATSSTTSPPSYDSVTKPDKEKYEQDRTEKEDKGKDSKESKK

For one experiment, the target named is recombinant human Nav1.7 (Homo sapiens (Human), UniProt Q15858). Kind of experiment: FRET-based membrane potential assay, recombinant human sodium channel Nav1.7. In kind it is cell-based. Conditions: HEK293 cells stably expressing recombinant human Nav1.7; veratridine + scorpion venom depolarization; read-out: FRET-Membrane Potential Nav1.7 IC50. The gist of the method:
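Channel activation used veratridine at its EC80, set by a dilution curve each experiment, together with Leiurus scorpion venom, added 3 min after compound. Membrane-potential ratio signals from FLIPR Tetra in HEPES-buffered HBSS were fitted to a four-parameter Hill equation for percent inhibition and IC50.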
Broadly, the IC50 is the point on the concentration scale where inhibition reaches its midpoint. Regarding `O=C1CCN(C(=O)CNC(=O)c2ccc3cc(Oc4ccc(C(F)(F)F)cn4)ccc3n2)C1` [Example 572, N-[2-oxo-2-(3-oxopyrrolidin-1-yl)ethyl]-6-{[5-(trifluoromethyl)pyridin-2-yl]oxy}quinoline-2-carboxamide], the IC50 was found to be 2.7 µM.

Take `O=C(NCC(=O)N1CCC(F)C1)c1ccc2cc(Oc3ccc(C(F)(F)F)cn3)ccc2n1` (centres unmarked) [Example 573, N-[2-(3-fluoropyrrolidin-1-yl)-2-oxoethyl]-6-{[5-(trifluoromethyl)pyridin-2-yl]oxy}quinoline-2-carboxamide]: the IC50 amounted to 0.987 µM.

Consider `O=C(NC1CC(N2CCOCC2)C1)c1ccc2cc(Oc3ccc(C(F)(F)F)nc3)ccc2n1` (centres unmarked) [Example 574, N-[3-(morpholin-4-yl)cyclobutyl]-6-{[6-(trifluoromethyl)pyridin-3-yl]oxy}quinoline-2-carboxamide], for which the IC50 was found to be 0.295 µM.

Consider `O=C(c1ccc2cc(Oc3ccc(C(F)F)cn3)ccc2n1)N1CC[C@@H](F)C1` [Example 575, (6-{[5-(difluoromethyl)pyridin-2-yl]oxy}quinolin-2-yl) [(3R)-3-fluoropyrrolidin-1-yl]methanone], for which the IC50 stood at 12.1 µM.

`O=C(c1ccc2cc(Oc3ccc(C(F)F)cn3)ccc2n1)N1CC[C@H](F)C1` [Example 576, (6-{[5-(difluoromethyl)pyridin-2-yl]oxy}quinolin-2-yl) [(3S)-3-fluoropyrrolidin-1-yl]methanone]: the IC50 came out at 10.1 µM.

As to `CS(=O)(=O)NC(=O)c1ccc2cc(Oc3ccc(C(F)(F)F)cn3)ccc2n1` [Example 577, N-(methylsulfonyl)-6-{[5-(trifluoromethyl)pyridin-2-yl]oxy}quinoline-2-carboxamide], the IC50 turned out to be 10.1 µM.

Turning to `CC1(O)CC(NC(=O)c2ccc3cc(Oc4ccc(C(F)(F)F)nc4)ccc3n2)C1` (centres unmarked) [Example 578, N-(3-hydroxy-3-methylcyclobutyl)-6-{[6-(trifluoromethyl)pyridin-3-yl]oxy}quinoline-2-carboxamide], the IC50 came out at 1.07 µM.

As for `CC(NC(=O)c1ccc2cc(Oc3ccc(C(F)(F)F)cn3)ccc2n1)C(=O)N(C)C` (centres unmarked) [Example 579, N-[1-(dimethylamino)-1-oxopropan-2-yl]-6-{[5-(trifluoromethyl)pyridin-2-yl]oxy}quinoline-2-carboxamide], the IC50 is 1.69 µM.

Regarding `O=C(N[C@@H]1CCNC[C@H]1F)c1ccc2cc(Oc3ccc(C(F)(F)F)cn3)ccc2n1` [Example 584, N-[(3R,4R)-3-fluoropiperidin-4-yl]-6-{[5-(trifluoromethyl)pyridin-2-yl]oxy}quinoline-2-carboxamide], the IC50 is 0.304 µM.

As to `O=C(c1ccc2cc(Oc3ccc(C(F)F)cn3)ccc2n1)N1CCN[C@H](CO)C1` [Example 585, (6-{[5-(difluoromethyl)pyridin-2-yl]oxy}quinolin-2-yl) [(3S)-3-(hydroxymethyl)piperazin-1-yl]methanone], the IC50 was greater than 20 µM.

As to `CN1CCC(NC(=O)c2ccc3cc(Oc4ccc(C(F)(F)F)cn4)ccc3n2)C1=O` (centres unmarked) [Example 587, N-(1-methyl-2-oxopyrrolidin-3-yl)-6-{[5-(trifluoromethyl)pyridin-2-yl]oxy}quinoline-2-carboxamide], the IC50 is 1.02 µM.

As to `COC(C)CNC(=O)c1ccc2cc(Oc3ccc(C(F)(F)F)cn3)ccc2n1` (centres unmarked) [Example 590, N-(2-methoxypropyl)-6-{[5-(trifluoromethyl)pyridin-2-yl]oxy}quinoline-2-carboxamide], the IC50 worked out at 1 µM.

On to `COC1(CNC(=O)c2ccc3cc(Oc4ccc(C(F)(F)F)cn4)ccc3n2)CCC1` [Example 591, N-[(1-methoxycyclobutyl)methyl]-6-{[5-(trifluoromethyl)pyridin-2-yl]oxy}quinoline-2-carboxamide], for which the IC50 is 0.737 µM.

Consider `O=C1CC(NC(=O)c2ccc3cc(Oc4ccc(C(F)F)cn4)ccc3n2)C1` [Example 592, 6-{[5-(difluoromethyl)pyridin-2-yl]oxy}-N-(3-oxocyclobutyl)quinoline-2-carboxamide], for which the IC50 came to 3.44 µM.

`N#CCCCNC(=O)c1ccc2cc(Oc3ccc(C(F)(F)F)cn3)ccc2n1` [Example 595, N-(3-cyanopropyl)-6-{[5-(trifluoromethyl)pyridin-2-yl]oxy}quinoline-2-carboxamide]: the IC50 turned out to be 1.13 µM.

As to `O=C(NC1CCC1)c1ccc2cc(Oc3ccc(C(F)(F)F)cn3)ccc2n1` [Example 596, N-cyclobutyl-6-{[5-(trifluoromethyl)pyridin-2-yl]oxy}quinoline-2-carboxamide], the IC50 was 1.76 µM.

Take `O=C(c1ccc2cc(Oc3ccc(C(F)(F)F)cn3)ccc2n1)N1CCNCC1C(F)(F)F` (centres unmarked) [Example 598, [2-(trifluoromethyl)piperazin-1-yl](6-{[5-(trifluoromethyl)pyridin-2-yl]oxy}quinolin-2-yl)methanone]: the IC50 is 2.98 µM.

Turning to `COCCCNC(=O)c1ccc2cc(Oc3ccc(C(F)(F)F)cn3)ccc2n1` [Example 599, N-(3-methoxypropyl)-6-{[5-(trifluoromethyl)pyridin-2-yl]oxy}quinoline-2-carboxamide], the IC50 came out at 1.59 µM.

As to `O=C(NCC1CSC1)c1ccc2cc(Oc3ccc(C(F)(F)F)cn3)ccc2n1` [Example 600, N-(thietan-3-ylmethyl)-6-{[5-(trifluoromethyl)pyridin-2-yl]oxy}quinoline-2-carboxamide], the IC50 was 1.76 µM.

With `O=C(NCC1C[S+]([O-])C1)c1ccc2cc(Oc3ccc(C(F)(F)F)cn3)ccc2n1` (centres unmarked) [Example 601, N-[(1-oxidothietan-3-yl)methyl]-6-{[5-(trifluoromethyl)pyridin-2-yl]oxy}quinoline-2-carboxamide], the IC50 was 2.51 µM.

Regarding `O=C(NCC1CS(=O)(=O)C1)c1ccc2cc(Oc3ccc(C(F)(F)F)cn3)ccc2n1` [Example 602, N-[(1,1-dioxidothietan-3-yl)methyl]-6-{[5-(trifluoromethyl)pyridin-2-yl]oxy}quinoline-2-carboxamide], the IC50 is 1.07 µM.

Turning to `O=C(NC1CC(F)C1)c1ccc2cc(Oc3ccc(C(F)(F)F)cn3)ccc2n1` (centres unmarked) [Example 604, N-(3-fluorocyclobutyl)-6-{[5-(trifluoromethyl)pyridin-2-yl]oxy}quinoline-2-carboxamide], the IC50 was 3.01 µM.

Regarding `O=C(NCCN1CCOC1=O)c1ccc2cc(Oc3ccc(C(F)(F)F)cn3)ccc2n1` [Example 605, N-[2-(2-oxo-1,3-oxazolidin-3-yl)ethyl]-6-{[5-(trifluoromethyl)pyridin-2-yl]oxy}quinoline-2-carboxamide], the IC50 was 2.88 µM.

For the compound `O=C(NCCc1ccccn1)c1ccc2cc(Oc3ccc(C(F)(F)F)cn3)ccc2n1` [Example 606, N-[2-(pyridin-2-yl)ethyl]-6-{[5-(trifluoromethyl)pyridin-2-yl]oxy}quinoline-2-carboxamide], the IC50 was found to be 0.856 µM.

For `O=C(NCCCc1ccccn1)c1ccc2cc(Oc3ccc(C(F)(F)F)cn3)ccc2n1` [Example 607, N-[3-(pyridin-2-yl)propyl]-6-{[5-(trifluoromethyl)pyridin-2-yl]oxy}quinoline-2-carboxamide], the IC50 stood at 0.91 µM.

On to `O=C(NCCCN1CCCC1=O)c1ccc2cc(Oc3ccc(C(F)(F)F)cn3)ccc2n1` [Example 608, N-[3-(2-oxopyrrolidin-1-yl)propyl]-6-{[5-(trifluoromethyl)pyridin-2-yl]oxy}quinoline-2-carboxamide], for which the IC50 amounted to 2.7 µM.

The same experiment, now with this note: read-out: FRET-Membrane Potential Nav1.7 IC50.
For `O=C(NCC(=O)N1CCC1)c1ccc2cc(Oc3ccc(C(F)(F)F)cn3)ccc2n1` [Example 571, N-[2-(azetidin-1-yl)-2-oxoethyl]-6-{[5-(trifluoromethyl)pyridin-2-yl]oxy}quinoline-2-carboxamide], the IC50 is 0.448 µM.

As for `O=C(c1ccc2cc(Oc3ccc(C(F)(F)F)cn3)ccc2n1)N1CCC[C@@H](O)C1` [Example 581, [(3R)-3-hydroxypiperidin-1-yl](6-{[5-(trifluoromethyl)pyridin-2-yl]oxy}quinolin-2-yl)methanone], the IC50 was 12.6 µM.

With `O=C(c1ccc2cc(Oc3ccc(C(F)(F)F)cn3)ccc2n1)N1CCC[C@H](O)C1` [Example 582, [(3S)-3-hydroxypiperidin-1-yl](6-{[5-(trifluoromethyl)pyridin-2-yl]oxy}quinolin-2-yl)methanone], the IC50 was determined as 10.3 µM.

Turning to `N[C@@H]1CCN(C(=O)c2ccc3cc(Oc4ccc(C(F)(F)F)cn4)ccc3n2)C[C@H]1F` [Example 583, [(3R,4R)-4-amino-3-fluoropiperidin-1-yl](6-{[5-(trifluoromethyl)pyridin-2-yl]oxy}quinolin-2-yl)methanone], the IC50 was 0.96 µM.

Regarding `O=C(c1ccc2cc(Oc3ccc(C(F)(F)F)cn3)ccc2n1)N1CC(N2CC[C@H](F)C2)C1` [Example 586, {3-[(3S)-3-fluoropyrrolidin-1-yl]azetidin-1-yl}(6-{[5-(trifluoromethyl)pyridin-2-yl]oxy}quinolin-2-yl)methanone], the IC50 worked out at 1.8 µM.

As to `CO[C@@H]1CCN(C(=O)c2ccc3cc(Oc4ccc(C(F)(F)F)cn4)ccc3n2)C1` [Example 588, [(3R)-3-methoxypyrrolidin-1-yl](6-{[5-(trifluoromethyl)pyridin-2-yl]oxy}quinolin-2-yl)methanone], the IC50 came to 3.64 µM.

As for `CO[C@H]1CCN(C(=O)c2ccc3cc(Oc4ccc(C(F)(F)F)cn4)ccc3n2)C1` [Example 589, [(3S)-3-methoxypyrrolidin-1-yl](6-{[5-(trifluoromethyl)pyridin-2-yl]oxy}quinolin-2-yl)methanone], the 50% inhibitory concentration (IC50) came out at 4.07 µM.

On to `COC[C@@H]1CN(C(=O)c2ccc3cc(Oc4ccc(C(F)(F)F)cn4)ccc3n2)CCN1` [Example 593, [(3S)-3-(methoxymethyl)piperazin-1-yl](6-{[5-(trifluoromethyl)pyridin-2-yl]oxy}quinolin-2-yl)methanone], for which the IC50 was determined as 0.238 µM.

Consider `O=C(c1ccc2cc(Oc3ccc(C(F)(F)F)cn3)ccc2n1)N1CCNC(C(F)F)C1` (centres unmarked) [Example 594, [3-(difluoromethyl)piperazin-1-yl](6-{[5-(trifluoromethyl)pyridin-2-yl]oxy}quinolin-2-yl)methanone], for which the IC50 amounted to 7.59 µM.
